A short description of data set [1]: Chemical stability in a cosmetic formulation, accelerated aging test (45° C., 3 months). The conditions noted are these: for % of the Compound after 3 Months: 0.1% m/m in cosmetic formulation, oven at 45° C., HPLC; for Stability in the cosmetic formulation (in words): 45° C., ferulyl compound also in cold storage; for % of the Compound after 3 Months / Stability in the cosmetic formulation (in words): 3 months. The protocol: In an embodiment, the chemical stability of the modified molecules was evaluated in accelerated degradation tests. For this purpose, the test molecules were formulated in a cosmetic relevant formulation and its degradations were assessed for a period of 3 months.
In an embodiment, the cosmetic formulation may comprise water, jojoba seed oil, butylene glycol, squalane, sodium hyaluronate, cetearyl alcohol and a carbomer.
In an embodiment, test molecules were added to the cosmetic formulation at 0.1% m/m level, thoroughly homogenized to ensure uniform dispersion and stored in closed glass bottles in an oven at 45° C. for 3 months. In order to evaluate homogeneity and stability, 3 samples were collected from random positions immediately after preparation and at each time point evaluated. The quantification of the test molecules was performed by HPLC.
In an embodiment, the preparation of the mixtures for evaluation of the stability was performed according to the following experimental protocol. The mass of compound was weighed and dissolved in 2-(2-ethoxyethoxy)ethanol (also weighed) and added to a known mass of moisturizer product. The mixture was homogenized, and 3 samples were collected to confirm homogenous distribution and initial concentration of modified molecules. The mixtures were then stored in an oven at 45° C. for 3 months (Table IV).
In an embodiment, the stability of the test molecules in the cosmetic formulation was determined. The test mixtures were sampled in triplicate from random zones. The samples were prepared for analysis by solubilizing them in acetonitrile and the quantification of the modified and non-modified tocopherol and tocotrienol molecules was performed by HPLC. The % of the initial compounds is described in Table IV.

For data set [2] the following is noted: for Rank of the nicotinic acid level in the permeate solutions: within molecules without a linker / within molecules with a linker. The protocol:
In an embodiment, the penetration into human skin and the conversion of the modified tocotrienols and modified α-tocotrienols with linkers molecules in the human skin were evaluated by permeation experiments using Franz diffusion cells. The conversion profile was evaluated and quantified by measuring nicotinic acid or nicotinyl alcohol in the permeate solutions.
In an embodiment, the skin permeation of the modified compounds was assessed. The permeation tests were performed with full thickness human skin. These samples were obtained at a local hospital, from healthy donors undergoing cosmetic surgery. The excised skin was stored in a PBS solution containing 10% antibiotic and maintained at 4° C., until further processing in the laboratory. When the skin sample was received, the underlying fat tissue was removed and discarded. The remaining skin (dermis and epidermis layers) was cut into pieces of approximately 1.5×1.5 cm. When the permeation experiments were executed with fresh skin, the samples were immediately used. Otherwise, the pre-cut skin samples were frozen at −80° C. and stored for further use. When reclaiming the frozen skin samples, the samples were removed from storage and thawed to room temperature for 1 hour before further manipulation.
The permeation experiments were performed in Franz diffusion cells. These diffusion cells are constituted by a donor compartment, where the formulation containing the permeate molecule is placed, and a receptor compartment containing the receptor fluid where the permeate molecule is collected and accumulated in time. The skin sample is placed between the donor and receptor compartments and is also equipped with a sampling access that allows for the collection of samples (a certain volume of the receptor fluid) without requiring the disassembly of the cell and therefore allows for the permeation experiment to continue (FIG. 3).
At the start of the experiment, the receptor compartment is filled with the receptor fluid, the skin sample is placed in place with care so as to not form air bubbles underneath. The donor receptor is positioned in place and clamped. The assembly is then placed in the thermostatic (37° C.) bath for 30 min to allow temperature equilibration. After the equilibration time, the level of the receptor fluid is adjusted as necessary. The receptor compartment is equipped with a magnetic mixer, ensuring the solution homogeneity during the course of the permeation experiment.
In an embodiment, the permeate solutions are monitored for the presence of nicotinic acid released from the modified tocopherol and tocotrienols molecules. The amount of nicotinic acid is quantified by HPLC using an ion pairing method. The concentration of nicotinic acid is calculated from a standard calibration curve of known nicotinic acid concentration solutions measured in the same conditions. The HPLC analysis is performed on a Knauer chromatograph consisting of 3 modules: Smartline manager 5000, Smartline pump 1000 and Smartline UV Detector 2600. The UV detector is fitted with a photodiode array (PDA) which allows for the continuous monitoring from 190-450 nm. The online chromatograms are monitored at 254 nm. The eluent comprises an ion-pairing eluent (50 mM of tetrabutylammonium hydroxide (TBAOH), pH corrected to 7.4 with hydrogenphosphate dibasic ([…])) containing 10% of acetonitrile at a flow of 1 mL/min and the column used is an Atlantis T3 4.6×250 mm (with guard column of same type 4.6×20 mm) at 30° C.
In an embodiment, the skin permeation experiments are performed with formulations of different concentrations of modified tocotrienol and tocopherol molecules. The modified molecules are dissolved at concentrations of 5% and 10% m/m in a mixture of equal volumes of 2-(2-ethoxyethoxy)ethanol and propylene glycol and 150 μl of these solutions are applied on the skin samples.

[3] abbreviates: modified α-tocotrienols with linkers, donor solution 10% m/m, 24 hours.
Setting [4] is: modified α-tocotrienols with linkers, donor solution 10% m/m, 48 hours.
The mark [5] stands for this setting: donor solution 5% m/m, 48 hours, human skin, Franz cell.
Where [6] appears, read: donor solution 10% m/m, 48 hours, human skin, Franz cell.

“Also recorded” adds a separate entry of the source. Where two headings read alike, the source gives them in different places.

Turning to `COc1cc(/C=C/C(=O)Oc2c(C)c(C)c3c(c2C)CCC(C)(CC/C=C(\C)CC/C=C(\C)CCC=C(C)C)O3)ccc1OC(=O)c1cccnc1` (stereo not drawn) [α-tocotrienyl ferulyl nicotinate], in data set [1], the “% of the Compound after 3 Months” value is listed as 0% and the “Stability in the cosmetic formulation (in words)” value (“Stability” below) was “unstable even in cold storage conditions; also recorded: not stable”. Further, the “Concentration of nicotinic acid in the permeate solution” value (shortened to “Concentration of nicotinic acid”) in data set [2] (setting [3]) is 1190 ng/mL. In addition, in data set [2] (setting [4]), the “Concentration of nicotinic acid” value amounted to 2960 ng/mL.

`CC(C)=CCC/C(C)=C/CC/C(C)=C/CC[C@]1(C)CCc2cc(O)c(C)c(C)c2O1` [γ-tocotrienol, reference compound]: the “% of the Compound after 3 Months” value in data set [1] came out at 20%.

Turning to `CC(C)=CCC/C(C)=C/CC/C(C)=C/CCC1(C)CCc2cc(OC(=O)c3cccnc3)c(C)c(C)c2O1` (stereo not shown) [γ-tocotrienyl nicotinate], in data set [1], the “% of the Compound after 3 Months” value is ≥95%. For the same compound, the “Concentration of nicotinic acid” value in data set [2] (setting [5]) worked out at 90 ng/mL; in data set [2] (setting [6]) it was 700 ng/mL.

Turning to `CC(C)=CCCC(C)=CCCC(C)=CCCC1(C)CCc2c(C)c(OC(=O)CCC(=O)OCc3cccnc3)c(C)c(C)c2O1` (stereo not drawn) [α-tocotrienyl nicotinyl succinate], in data set [1], the “Remaining fraction of the initial mass after 3 months of accelerated aging” value is on record as > 95% and the “% of the Compound after 3 Months” value is on record as ≥95%.

Regarding `CC(C)=CCC/C(C)=C/CC/C(C)=C/CC[C@]1(C)CCc2cc(O)cc(C)c2O1` [δ-tocotrienol, reference compound], the “% of the Compound after 3 Months” value in data set [1] stood at 57%.

For the compound `Cc1c(C)c2c(c(C)c1O)CC[C@@](C)(CCC[C@H](C)CCC[C@H](C)CCCC(C)C)O2` [α-tocopherol, reference compound], the “% of the Compound after 3 Months” value in data set [1] stood at 44%.

As for `Cc1c(C)c2c(c(C)c1OC(=O)c1cccnc1)CC[C@@](C)(CCC[C@H](C)CCC[C@H](C)CCCC(C)C)O2` [α-tocopheryl nicotinate, reference compound], in data set [1], the “% of the Compound after 3 Months” value is recorded as ≥95%.

With `CC(C)=CCCC(C)=CCCC(C)=CCCC1(C)CCc2cc(OC(=O)c3cccnc3)cc(C)c2O1` (stereo not shown) [δ-tocotrienyl nicotinate], in data set [1], the “% of the Compound after 3 Months” value is ≥95%.

Turning to `CC(C)=CCC/C(C)=C/CC/C(C)=C/CCC1(C)CCc2c(C)c(OC(=O)c3cccnc3)c(C)c(C)c2O1` (stereo not drawn) [α-tocotrienyl nicotinate], the “% of the Compound after 3 Months” value in data set [1] is ≥95%. Moreover, the “Concentration of nicotinic acid” value in data set [2] (donor solution 5% m/m, 24 hours, human skin, Franz cell) is 320 ng/mL; in data set [2] (donor solution 5% m/m, 33 hours, human skin, Franz cell), 540 ng/mL; in data set [2] (setting [5]), 890 ng/mL; in data set [2] (setting [6]) it was 2830 ng/mL. The “Rate of conversion into the parent molecules relative to the other modified tocotrienols” value in data set [2] (human skin) is listed as “higher rate”. Also, the “Release of nicotinic acid relative to α-tocopheryl nicotinate” value in data set [2] (human skin, Franz cell) is given as “faster”. Moreover, in data set [2] (human skin, Franz cell), the “Release of nicotinic acid relative to γ-tocotrienyl nicotinate or δ-tocotrienyl nicotinate” value is recorded as “three times faster”. The “Rank of the nicotinic acid level in the permeate solutions” value in data set [2] is reported as “highest level”.

Take `CC(C)=CCC/C(C)=C/CC/C(C)=C/CC[C@]1(C)CCc2c(C)c(O)c(C)c(C)c2O1` [α-tocotrienol, reference compound]: the “% of the Compound after 3 Months” value in data set [1] was 53%.

With `CC(C)=CCC/C(C)=C/CC/C(C)=C/CCC1(C)CCc2c(C)c(OC(=O)COC(=O)c3cccnc3)c(C)c(C)c2O1` (stereo not drawn) [α-tocotrienyl glycolyl nicotinate], the “% of the Compound after 3 Months” value in data set [1] is on record as ≥95%. The “Stability” value in data set [1] is “excellent stability”. Moreover, the “Rate of conversion into the parent molecules relative to the other modified tocotrienols” value in data set [2] (human skin) is “higher rate”. Besides, the “Concentration of nicotinic acid” value stood at 3020 ng/mL in data set [2] (setting [3]) and 8180 ng/mL in data set [2] (setting [4]). Also, the “Rank of the nicotinic acid level in the permeate solutions” value in data set [2] is “highest level”.

Consider `CC(C)=CCC/C(C)=C/CC/C(C)=C/CCC1(C)CCc2c(C)c(OC(=O)CNC(=O)c3cccnc3)c(C)c(C)c2O1` (stereo not drawn) [α-tocotrienyl glycinyl nicotinate], for which, in data set [1], the “% of the Compound after 3 Months” value is given as ≥95%. Besides, the “Stability” value in data set [1] is “excellent stability”. The “Concentration of nicotinic acid” value was 180 ng/mL in data set [2] (setting [3]) and 380 ng/mL in data set [2] (setting [4]).
